Results reported in patent US20100056596A1, “RESISTANCE-REPELLENT RETROVIRAL PROTEASE INHIBITORS” (Sequoia Pharmaceuticals, priority 2004, published 2010).
Where two headings read alike, the source gives them in different places.

What was measured:
wild type HIV-1 protease = molecular target: T1, wild type HIV-1 protease (Human immunodeficiency virus type 1 group M subtype B, UniProt P04585); experiment: Ki against wild type (WT) HIV-1 protease; type: biochemical
T1 construct: over 45 of the 99 amino acids of the HIV protease monomer

HIV-1 protease Mutant 8 = HIV-1 protease Mutant 8 (Human immunodeficiency virus type 1, UniProt P04585); experiment: Ki against HIV-1 protease Mutant 8; type: biochemical
HIV-1 protease Mutant 9 = HIV-1 protease Mutant 9 (Human immunodeficiency virus type 1, UniProt P04585); experiment: Ki against HIV-1 protease Mutant 9; type: biochemical
HIV-1 isolates, WT = experiment: In vitro drug sensitivity of HIV-1 laboratory isolates, WT; type: cell-based
Experimental: (§1) In Vitro Drug Sensitivity of HIV-1 Laboratory Isolates to PIs
(§2) The sensitivities of HIV-1 isolates against compounds of the invention were determined as previously described with minor modifications (Shiraska et al., Proc. Natl. Acad. Sci. USA, 92, 2398-2402 (1995)).

HIV-1 isolates, Mutant 8 = experiment: In vitro drug sensitivity of HIV-1 laboratory isolates, Mutant 8; type: cell-based
Experimental: as §1, §2

HIV-1 isolates, Mutant 9 = experiment: In vitro drug sensitivity of HIV-1 laboratory isolates, Mutant 9; type: cell-based
Experimental: as §1, §2

[1] = Human immunodeficiency virus 1, read-out: IC50 Mutant 8
[2] = Human immunodeficiency virus 1, read-out: IC50 Mutant 9
[3] = Mutant 8, read-out: IC50 Mutant 8
[4] = Mutant 9, read-out: IC50 Mutant 9
[5] = Human immunodeficiency virus 1, HIV-1 isolate WT

SMILES	Ki (wild type HIV-1 protease; WT)	Ki (HIV-1 protease Mutant 8; Mutant 8)	Ki (HIV-1 protease Mutant 9; Mutant 9)	IC50 (HIV-1 isolates, WT; Human immunodeficiency virus 1)	IC50 (HIV-1 isolates, Mutant 8; [1])	IC50 (HIV-1 isolates, Mutant 9; [2])	IC50 (HIV-1 isolates, WT; WT)	IC50 (HIV-1 isolates, Mutant 8; [3])	IC50 (HIV-1 isolates, Mutant 9; [4])	Ki (wild type HIV-1 protease; wild type HIV-1 protease)	Ki (HIV-1 protease Mutant 8; HIV-1 protease Mutant 8)	Ki (HIV-1 protease Mutant 9; HIV-1 protease Mutant 9)	IC50 (HIV-1 isolates, WT; [5])
CC(=O)OCc1coc2ccc(S(=O)(=O)N(CC(C)C)CC(O)C(Cc3ccccc3)NC(=O)OC3COC4OCCC34)cc12 (stereo not drawn) [Compound 122]	< 0.1 nM	< 0.3 nM	0.27 nM	5.9 nM	11 nM	110 nM							
COCc1coc2ccc(S(=O)(=O)N(CC(C)C)CC(O)C(Cc3ccccc3)NC(=O)OC3COC4OCCC34)cc12 (stereo not drawn) [Compound 123]	0.13 nM	< 0.3 nM	0.22 nM	4 nM	19 nM	240 nM							
CC(C)CN(CC(O)C(Cc1ccccc1)NC(=O)OC1COC2OCCC12)S(=O)(=O)c1ccc2occ(CO)c2c1 (stereo not drawn) [Compound 124]	< 0.1 nM	< 0.3 nM	0.26 nM	8.7 nM	12 nM	130 nM							
CC(C)CN(C[C@@H](O)[C@H](Cc1ccccc1)NC(=O)OC1COC2OCCC12)S(=O)(=O)c1ccc2occ(CNC(=O)c3ccco3)c2c1 (stereo partly drawn) [Compound 125]	< 0.1 nM	< 0.3 nM	< 0.1 nM				5 nM	9 nM	31 nM				
CCOC(=O)N(CCOC)Cc1coc2ccc(S(=O)(=O)N(CC(C)C)C[C@@H](O)[C@H](Cc3ccccc3)NC(=O)OC3COC4OCCC34)cc12 (stereo partly drawn) [Compound 126]	< 0.1 nM	< 0.3 nM	0.92 nM				4 nM	60 nM	250 nM				
CC(C)CN(CC(O)C(Cc1ccccc1)NC(=O)OC1COC2OCCC12)S(=O)(=O)c1ccc2onc(CN)c2c1 (stereo not drawn) [Compound 203]					70 nM	120 nM				< 0.1 nM	< 0.3 nM	0.71 nM	22 nM
CC(C)CN(CC(O)C(Cc1ccccc1)NC(=O)OC1COC2OCCC12)S(=O)(=O)c1ccc2onc(CNS(=O)(=O)C(C)C)c2c1 (stereo not drawn) [Compound 204]					31 nM	83 nM				< 0.1 nM	< 0.3 nM	0.14 nM	6.5 nM
CC(=O)OCc1noc2ccc(S(=O)(=O)N(CC(C)C)CC(O)C(Cc3ccccc3)NC(=O)OC3COC4OCCC34)cc12 (stereo not drawn) [Compound 205]					23 nM	68 nM				< 0.1 nM	< 0.3 nM	0.23 nM	10 nM
CCOC(=O)C(C)NCc1noc2ccc(S(=O)(=O)N(CC(C)C)CC(O)C(Cc3ccccc3)NC(=O)OC3COC4OCCC34)cc12 (stereo not drawn) [Compound 206]					30 nM	160 nM				< 0.1 nM	< 0.3 nM	0.33 nM	5 nM
CC(C)CN(CC(O)C(Cc1ccccc1)NC(=O)OC1COC2OCCC12)S(=O)(=O)c1ccc2onc(CNS(C)(=O)=O)c2c1 (stereo not drawn) [Compound 207]					28 nM	54 nM				< 0.1 nM	< 0.3 nM	0.34 nM	22 nM
CCCC[S+]([O-])Cc1noc2ccc(S(=O)(=O)N(CC(C)C)CC(O)C(Cc3ccccc3)NC(=O)OC3COC4OCCC34)cc12 (stereo not drawn) [Compound 208]					36 nM	60 nM				< 0.1 nM	< 0.3 nM	< 0.1 nM	3.9 nM
CC(C)CN(CC(O)C(Cc1ccccc1)NC(=O)OC1COC2OCCC12)S(=O)(=O)c1ccc2onc(CSC(C)C)c2c1 (stereo not drawn) [Compound 209]					50 nM	210 nM				< 0.1 nM	< 0.3 nM	2.3 nM	3.5 nM
CC(C)CN(CC(O)C(Cc1ccccc1)NC(=O)OC1COC2OCCC12)S(=O)(=O)c1ccc2onc(CN(C)S(C)(=O)=O)c2c1 (stereo not drawn) [Compound 210]					51 nM	300 nM				< 0.1 nM	< 0.3 nM	1.3 nM	3 nM
Cc1ccc(S(=O)(=O)N(C)Cc2noc3ccc(S(=O)(=O)N(CC(C)C)CC(O)C(Cc4ccccc4)NC(=O)OC4COC5OCCC45)cc23)cc1 (stereo not drawn) [Compound 211]					51 nM	300 nM				< 0.1 nM	< 0.3 nM	1.7 nM	2.1 nM
CC(C)CN(CC(O)C(Cc1ccccc1)NC(=O)OC1COC2OCCC12)S(=O)(=O)c1ccc2onc(CNC(=O)OC(C)C)c2c1 (stereo not drawn) [Compound 212]					30 nM	> 400 nM				< 0.1 nM	< 0.3 nM	0.34 nM	5 nM
CC(C)CN(CC(O)C(Cc1ccccc1)NC(=O)OC1COC2OCCC12)S(=O)(=O)c1ccc2onc(CO)c2c1 (stereo not drawn) [Compound 213]					30 nM	55 nM				< 0.1 nM	< 0.3 nM	0.15 nM	7 nM
CC(=O)NCc1noc2ccc(S(=O)(=O)N(CC(C)C)CC(O)C(Cc3ccccc3)NC(=O)OC3COC4OCCC34)cc12 (stereo not drawn) [Compound 214]					28 nM	31 nM				< 0.1 nM	< 0.3 nM	< 0.1 nM	42 nM
CC(C)CN(CC(O)C(Cc1ccccc1)NC(=O)OC1COC2OCCC12)S(=O)(=O)c1ccc2onc(COC(=O)C(C)C)c2c1 (stereo not drawn) [Compound 215]					15 nM	55 nM				< 0.1 nM	< 0.3 nM	0.75 nM	11 nM
CC(C)CN(CC(O)C(Cc1ccccc1)NC(=O)OC1COC2OCCC12)S(=O)(=O)c1ccc2onc(Cn3ccnc3)c2c1 (stereo not drawn) [Compound 216]					32 nM	250 nM				< 0.1 nM	< 0.3 nM	1.7 nM	20 nM
CCOC(=O)NCc1noc2ccc(S(=O)(=O)N(CC(C)C)CC(O)C(Cc3ccccc3)NC(=O)OC3COC4OCCC34)cc12 (stereo not drawn) [Compound 217]					30 nM	20 nM				< 0.1 nM	< 0.3 nM	< 0.1 nM	2.3 nM
